Read-outs that look alike come from different tables or passages of the source.
Legend:
SARS-CoV-2 = test: microbe, parasite or virus in culture; format: cell-based; details: Severe acute respiratory syndrome coronavirus 2, VeroE6/TMPRSS2, 72 h, 50% SARS-CoV-2 infected cell death inhibitory concentration, VeroE6/TMPRSS2 cells, 3 days culture
SARS-CoV-2 3CL protease = SARS-CoV-2 3CL protease (Severe acute respiratory syndrome coronavirus 2, UniProt P0DTD1); test: biochemical; details: 50% SARS-CoV-2 3CL protease inhibitory concentration, read-out: IC50

In the case of COc1ccc(Nc2nc(=O)n(Cc3ccc[nH]c3=O)c(=O)n2Cc2cc(F)c(F)c(F)c2)c(Br)c1 [Compound I-0166], the EC50 (SARS-CoV-2; class symbols) is reported as < 1000 nM and the IC50 (SARS-CoV-2 3CL protease; given as class symbols) is reported as < 100 nM.

Work on Cc1cncc(-n2c(=O)nc(Nc3cc4cn(C)nc4cc3Cl)n(Cc3cc(C#N)ccc3Cl)c2=O)c1 [II-0579] yielded an EC50 (SARS-CoV-2; CellTiter-Glo 2.0) of 67 nM and an IC50 (SARS-CoV-2 3CL protease; RapidFire MS) of 2.1 nM.

With N#Cc1cc(Cn2c(Nc3cc4cn(CC(F)F)nc4cc3F)nc(=O)n(-c3cncc(Cl)c3)c2=O)ccc1F [II-0513] the EC50 (SARS-CoV-2; class symbols) was < 1000 nM and the IC50 (SARS-CoV-2 3CL protease; given as class symbols) was < 100 nM.

For CNc1nc2cc(Cl)c(Nc3nc(=O)n(-c4cncc(Cl)c4)c(=O)n3Cc3ccc(F)c(C#N)c3)cc2o1 [II-0516], the EC50 (SARS-CoV-2; class symbols) was 1000 to 10000 nM and the IC50 (SARS-CoV-2 3CL protease; given as class symbols) was < 100 nM.

With Cn1cnc(Cn2c(=O)nc(Nc3cc4cn(C)nc4cc3Cl)n(Cc3cc(F)c(F)c(F)c3)c2=O)n1 [Compound I-0421] the EC50 (SARS-CoV-2; CellTiter-Glo 2.0) was 450 nM, the EC50 (SARS-CoV-2; class symbols) was < 1000 nM and the IC50 (SARS-CoV-2 3CL protease; given as class symbols) was < 100 nM. For the same compound, the IC50 (SARS-CoV-2 3CL protease; RapidFire MS) was 10 nM.

For COC(=O)Nc1nc2cc(Cl)c(Nc3nc(=O)n(-c4cncc(C)c4)c(=O)n3Cc3cc(Cl)c(F)cn3)cc2s1 [II-0079], the EC50 (SARS-CoV-2; class symbols) was < 1000 nM and the IC50 (SARS-CoV-2 3CL protease; given as class symbols) was < 100 nM.

With Cc1cncc(-n2c(=O)nc(Nc3cnc(OCC(F)F)cc3C)n(Cc3ccc(F)c(C#N)c3)c2=O)c1 [II-0123] the EC50 (SARS-CoV-2; class symbols) was 1000 to 10000 nM and the IC50 (SARS-CoV-2 3CL protease; given as class symbols) was < 100 nM.

Cc1cncc(-n2c(=O)nc(Nc3ccc4c(c3)CCO4)n(Cc3cc(F)c(F)c(F)c3)c2=O)c1 [II-0203] was tested, and the EC50 (SARS-CoV-2; class symbols) was < 1000 nM and the IC50 (SARS-CoV-2 3CL protease; given as class symbols) was < 100 nM.

Cc1cncc(-n2c(=O)nc(Nc3cc4cn(C)nc4cc3Cl)n(Cc3cc(C#N)ccc3F)c2=O)c1 [II-0301] was tested, and the EC50 (SARS-CoV-2; class symbols) was < 1000 nM and the IC50 (SARS-CoV-2 3CL protease; given as class symbols) was < 100 nM.

In the case of CC(=O)NCCn1cc2cc(Nc3nc(=O)n(-c4cncc5ccccc45)c(=O)n3Cc3cc(F)c(F)c(F)c3)c(Cl)cc2n1 [Compound I-0471], the EC50 (SARS-CoV-2; class symbols) is reported as 1000 to 10000 nM and the IC50 (SARS-CoV-2 3CL protease; given as class symbols) is reported as < 100 nM.

In the case of N#Cc1cc(Cn2c(Nc3cc4c(cc3Cl)OCC4)nc(=O)n(Cc3ccc[nH]c3=O)c2=O)ccc1F [Compound I-0013], the EC50 (SARS-CoV-2; class symbols) is reported as 1000 to 10000 nM and the IC50 (SARS-CoV-2 3CL protease; given as class symbols) is reported as < 100 nM.

With Cc1cncc(-n2c(=O)nc(Nc3ccc4nn(C)cc4c3)n(Cc3cc(C#N)ccc3C)c2=O)c1 [II-0125] the EC50 (SARS-CoV-2; CellTiter-Glo 2.0) was 220 nM and the IC50 (SARS-CoV-2 3CL protease; RapidFire MS) was 4.8 nM.

With N#Cc1cc(Cn2c(Nc3cc4c(cc3Cl)OCC4)nc(=O)n(Cc3cc(Cl)c[nH]c3=O)c2=O)ccc1F [Compound I-0408] the EC50 (SARS-CoV-2; class symbols) was 1000 to 10000 nM and the IC50 (SARS-CoV-2 3CL protease; given as class symbols) was < 100 nM.

With COc1ccc(Nc2nc(=O)n(Cc3ncn(C(F)F)n3)c(=O)n2Cc2cc(F)c(F)c(F)c2)cc1 [II-0257] the EC50 (SARS-CoV-2; CellTiter-Glo 2.0) was 9140 nM and the IC50 (SARS-CoV-2 3CL protease; RapidFire MS) was 970 nM.

In the case of Cc1nc2cc(Nc3nc(=O)n(Cc4ccc[nH]c4=O)c(=O)n3Cc3cc(F)c(F)c(F)c3)c(Cl)cc2o1 [Compound I-0461], the EC50 (SARS-CoV-2; class symbols) is reported as 1000 to 10000 nM and the IC50 (SARS-CoV-2 3CL protease; given as class symbols) is reported as < 100 nM.

With COc1ccc(Nc2nc(=O)n(Cc3ccc[nH]c3=O)c(=O)n2Cc2cc(F)c(F)c(Cl)c2)c(Cl)c1 [Compound I-0255] the EC50 (SARS-CoV-2; class symbols) was < 1000 nM and the IC50 (SARS-CoV-2 3CL protease; given as class symbols) was < 100 nM.

O=c1nc(Nc2cc3cn(CCN4CCOCC4)nc3cc2Cl)n(Cc2cc(F)c(F)c(F)c2)c(=O)n1-c1cncc2ccccc12 [Compound I-0401] was tested, and the EC50 (SARS-CoV-2; class symbols) was 1000 to 10000 nM and the IC50 (SARS-CoV-2 3CL protease; given as class symbols) was < 100 nM.

O=c1[nH]cccc1Cn1c(=O)nc(Nc2cc3ccnn3cc2Cl)n(Cc2cc(F)c(F)c(F)c2)c1=O [Compound I-0247] showed an EC50 (SARS-CoV-2; CellTiter-Glo 2.0) of 3540 nM, an EC50 (SARS-CoV-2; class symbols) of 1000 to 10000 nM and an IC50 (SARS-CoV-2 3CL protease; RapidFire MS) of 25 nM.

Cn1ccc(-c2ccnc(Cn3c(=O)nc(Nc4cc5cn(C)nc5cc4Cl)n(Cc4cc(F)c(F)cc4F)c3=O)n2)n1 [II-0250] was tested, and the EC50 (SARS-CoV-2; class symbols) was 1000 to 10000 nM and the IC50 (SARS-CoV-2 3CL protease; given as class symbols) was < 100 nM.

With Cc1cncc(-n2c(=O)nc(Nc3ccc4oc(C)cc4c3)n(Cc3ccc(F)c(C#N)c3)c2=O)c1 [II-0196] the EC50 (SARS-CoV-2; class symbols) was < 1000 nM and the IC50 (SARS-CoV-2 3CL protease; given as class symbols) was < 100 nM.

With CC(C)n1cc2cc(Nc3nc(=O)n(-c4cncc5ccccc45)c(=O)n3Cc3ccc(F)c(C#N)c3)ccc2n1 [II-0168] the EC50 (SARS-CoV-2; class symbols) was < 1000 nM and the IC50 (SARS-CoV-2 3CL protease; given as class symbols) was < 100 nM.

For Cn1cnc(Cn2c(=O)nc(Nc3cc4cn(C)nc4cc3F)n(Cc3cc(F)c(F)cc3F)c2=O)n1 [II-0519], the EC50 (SARS-CoV-2; class symbols) was 1000 to 10000 nM and the IC50 (SARS-CoV-2 3CL protease; given as class symbols) was < 100 nM.

In the case of Cn1cc2cc(Nc3nc(=O)n(-c4cncc(C5CC5)c4)c(=O)n3Cc3ccc(F)c(C#N)c3)c(Cl)cc2n1 [II-0261], the EC50 (SARS-CoV-2; class symbols) is reported as < 1000 nM and the IC50 (SARS-CoV-2 3CL protease; given as class symbols) is reported as < 100 nM.

With Cc1cncc(-n2c(=O)nc(Nc3cc4cn(C)nc4cc3Cl)n(Cc3cc(C#N)c(F)cc3Cl)c2=O)c1 [II-0087] the EC50 (SARS-CoV-2; CellTiter-Glo 2.0) was 69 nM and the IC50 (SARS-CoV-2 3CL protease; RapidFire MS) was 2.5 nM.

For CNc1nc2cc(Cl)c(Nc3nc(=O)n(-c4cncc(C)c4)c(=O)n3Cc3ccc(F)c(C#N)c3)cc2n1C [II-0414], the EC50 (SARS-CoV-2; class symbols) was 1000 to 10000 nM and the IC50 (SARS-CoV-2 3CL protease; given as class symbols) was < 100 nM.

With Cn1cc2cc(Nc3nc(=O)n(Cc4nccc(N)n4)c(=O)n3Cc3cc(F)c(F)cc3F)c(Cl)cc2n1 [II-0246] the EC50 (SARS-CoV-2; class symbols) was 1000 to 10000 nM and the IC50 (SARS-CoV-2 3CL protease; given as class symbols) was < 100 nM.

Work on O=c1[nH]cccc1Cn1c(=O)nc(-c2ccccc2)n(Cc2cc(F)c(F)c(F)c2)c1=O [Compound I-0329] yielded an EC50 (SARS-CoV-2; CellTiter-Glo 2.0) of 5100 nM and an IC50 (SARS-CoV-2 3CL protease; RapidFire MS) of 2000 nM.

Cn1cc2cc(Nc3nc(=O)n(-c4cncc(N)c4)c(=O)n3Cc3cc(F)c(F)c(Cl)c3)c(Cl)cc2n1 [II-0384] was tested, and the EC50 (SARS-CoV-2; class symbols) was 1000 to 10000 nM and the IC50 (SARS-CoV-2 3CL protease; given as class symbols) was < 100 nM.

Reference: patent US12559474B2, “Triazine derivatives having virus replication inhibitory activity and pharmaceutical composition comprising the same” (priority 2021, dated 2026)
